Measured values taken from PubChem BioAssay (NCI).
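Five compound concentrations were applied to cells in 96-well plates for 48 hours; endpoints were derived by simple linear interpolation of the resulting dose-response curve. TGI: concentration producing complete growth inhibition.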

Tests used:
Experiment in all cases: DTP human tumour cell line panel, 48 h
OVCAR-5 ovarian = test system: OVCAR-5 ovarian
MCF7 breast = test system: MCF7 breast
CAKI-1 renal = test system: CAKI-1 renal
SNB-19 CNS = test system: SNB-19 CNS
TK-10 renal = test system: TK-10 renal
OVCAR-3 ovarian = test system: OVCAR-3 ovarian
SK-OV-3 ovarian = test system: SK-OV-3 ovarian
DU-145 prostate = test system: DU-145 prostate
SW-620 colon = test system: SW-620 colon
BT-549 breast = test system: BT-549 breast

| SMILES | TGI (OVCAR-5 ovarian) [µM] | TGI (MCF7 breast) [µM] | TGI (CAKI-1 renal) [µM] | TGI (SNB-19 CNS) [µM] | TGI (TK-10 renal) [µM] | TGI (OVCAR-3 ovarian) [µM] | TGI (SK-OV-3 ovarian) [µM] | TGI (DU-145 prostate) [µM] | TGI (SW-620 colon) [µM] | TGI (BT-549 breast) [µM] |
| --- | --- | --- | --- | --- | --- | --- | --- | --- | --- | --- |
| O=c1cc(N=Nc2ccc(Cl)cc2)[nH]c(=O)[nH]1 | 32.2 | 22.8 | 4.12 | 25.2 | 13.5 | 9.53 | 22 | 22.6 | 5.65 | 8.38 |
| CC12CCC(C(Nc3ccccn3)C1=O)C2(C)C (stereo not given) | > 100 | > 100 | > 100 | > 100 | > 100 | > 100 | > 100 | > 100 | > 100 | > 100 |
| CC1CCc2sc3[nH]c(=S)n(-c4ccccc4)c(=O)c3c2C1 (stereo not given) | > 100 | > 100 | > 100 | > 100 | > 100 | 85.3 | > 100 | > 100 | > 100 | > 100 |
| COC(=O)c1cc(C(=CCC[C@H]2CC[C@@]3(C)C(CCC4C3CC[C@@]3(C)C4CC[C@@H]3C(C)CCCC(C)C)C2)c2cc(Cl)c(OC(=O)c3ccccc3)c(C(=O)OC)c2)cc(Cl)c1OC(=O)c1ccccc1 (stereo not given in full) | > 10 | > 10 | > 10 | > 10 | > 10 | > 10 | > 10 | > 10 | > 10 | > 10 |
| COc1ccc(Oc2nc(C#CC(C)(C)O)nc(Oc3ccc(OC)cc3)n2)cc1 | 16.6 | 3.15 | 12.5 | 41 | 25.5 | 4.58 | 36 | 7.16 | 3.47 | 31.1 |
| CC1(C)CCC(=O)NC1CC(=O)CC1NC(=O)CCC1(C)C (stereo not given) | > 100 | > 100 | > 100 | > 100 | > 100 | > 100 | > 100 | > 100 | > 100 | > 100 |
| O=C(OCc1ccccc1)N1CCN(C(=O)OCc2ccccc2)CCN(C(=O)OCc2ccccc2)CCN(C(=O)OCc2ccccc2)CCN(C(=O)OCc2ccccc2)CC1 | > 100 | > 100 | > 100 | > 100 | > 100 | > 100 | > 100 | > 100 | > 100 | > 100 |
| CCCCCCCCCCCCCCCCCCOCC(COP(=O)([O-])OCC[N+](C)(C)C)OC (stereo not given) | 37 | > 54.3 | 44.3 | 47.1 | 41.5 | 54.5 | 46 | > 100 | 47.9 | > 100 |
| N#Cc1ccc(Oc2nc3ccc(C(F)(F)F)cc3nc2-c2ccccc2)cc1 | 26.2 | 44.1 | 44.3 | 41.2 | 33.6 | 44.8 | 26.9 | 34 | 35.7 | > 100 |
| Cc1ccc(S(=O)(=O)N2CCNCCN(S(=O)(=O)c3ccc(C)cc3)CCN(S(=O)(=O)c3ccc(C)cc3)CC2)cc1 | > 100 | > 100 | > 100 | > 100 | > 100 | > 100 | > 100 | > 100 | > 100 | > 100 |
| CC(=O)O[C@H]1[C@@H](OC(C)=O)C(C)(C)/C=C/[C@H](C)C(=O)[C@@]2(OC(C)=O)C[C@@](C)(OC(C)=O)[C@H](OC(C)=O)[C@@H]2[C@H]2OC(=O)CC[C@@]2(OC(=O)c2ccccc2)[C@@H]1OCC(C)C | > 100 | > 100 | > 100 | > 100 | > 100 | > 100 | > 100 | > 100 | > 100 | > 100 |
| Nc1ccc(Oc2ccc(C34CC5CC6C3CC3CC4C(C5)C6(c4ccc(Oc5ccc(N)c(O)c5)cc4)C3)cc2)cc1O | > 39.5 | > 42.3 | 27.7 | 14.7 | 19 | 8.28 | 21.7 | > 43.5 | > 54.8 | 20.9 |
| N=c1c2c(=S)n(-c3ccccc3)c(=S)n(-c3ccccc3)c2nc(SCCN2CCOCC2)n1-c1ccccc1 | 33.9 | > 100 | 3.99 | 24 | 3.1 | 3.3 | 15 | 3.22 | 3.96 | 4.51 |
| COc1ccc(/C=N/NC(=O)c2cnc3[nH]c(=O)n(C)c(=O)c3c2)cc1 | > 100 | > 100 | > 100 | 98.8 | > 100 | > 100 | > 100 | > 100 | > 100 | > 100 |
